# Data taken from US11987588B2, “Modulators of the beta-3 adrenergic receptor useful for the treatment or prevention of heart failure and disorders related thereto” (Arena Pharmaceuticals, Inc., priority 2017, dated 2024).
# Molecular target: Beta-3 Adrenergic Receptor (Homo sapiens (Human), UniProt P13945)
# Assay: Homogeneous Time-Resolved Fluorescence (HTRF) cAMP antagonist assay, IC50 determination
# Format: cell-based
# Conditions: CHO-K1 cells stably expressing recombinant receptor, isoproterenol at EC90
# Summary of the method: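 CHO-K1 cells stably expressing receptor, 1500 cells/well, preincubated briefly with 10-point 5-fold compound series (top final typically 10 or 100 μM) in PBS with 1 mM IBMX, then challenged with isoproterenol at EC90 for 1 h at room temperature. cAMP read by HTRF against on-plate standard curve; IC50 from dose-response.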
# Beta-3 Adrenergic Receptor, sequence (P13945 whole entry, species assumed): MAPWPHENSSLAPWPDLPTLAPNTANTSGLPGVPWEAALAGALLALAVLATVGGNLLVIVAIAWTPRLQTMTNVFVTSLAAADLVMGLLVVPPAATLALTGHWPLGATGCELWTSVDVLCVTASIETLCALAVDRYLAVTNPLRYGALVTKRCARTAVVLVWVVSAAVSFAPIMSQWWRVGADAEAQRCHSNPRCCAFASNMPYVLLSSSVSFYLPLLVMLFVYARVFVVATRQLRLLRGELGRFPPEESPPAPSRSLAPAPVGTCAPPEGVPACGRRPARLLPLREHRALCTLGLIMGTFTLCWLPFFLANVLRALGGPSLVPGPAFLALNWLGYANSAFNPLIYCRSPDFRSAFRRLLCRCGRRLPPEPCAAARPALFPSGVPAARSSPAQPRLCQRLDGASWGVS
row,SMILES,IC50 [µM]
1,"CCNS(=O)(=O)c1cccc(OC[C@@H](O)CNC2COC3(CCN(S(=O)(=O)c4ccc(-c5ccccc5)s4)CC3)C2)c1 (stereo partly drawn) [Compound 233, N-ethyl-3-((2S)-2-hydroxy-3-(8-(5-phenylthiophen-2-ylsulfonyl)-1-oxa-8-azaspiro[4.5]decan-3-ylamino)propoxy)benzenesulfonamide]",0.156
2,"CNS(=O)(=O)c1cccc(OC[C@@H](O)CNC2COC3(CCN(S(=O)(=O)c4cccc(-c5ccc(CNCCC(C)C)cc5)c4)CC3)C2)c1 (stereo partly drawn) [Compound 320, 3-((2S)-2-hydroxy-3-(8-(4′-((isopentylamino)methyl)biphenyl-3-ylsulfonyl)-1-oxa-8-azaspiro[4.5]decan-3-ylamino)propoxy)-N-methylbenzenesulfonamide]",0.0263
3,"CNS(=O)(=O)c1cccc(OC[C@@H](O)CNC2COC3(CCN(S(=O)(=O)c4cccc(Oc5ccccc5C(F)(F)F)c4)CC3)C2)c1 (stereo partly drawn) [Compound 170, 3-((2S)-2-hydroxy-3-(8-(3-(2-(trifluoromethyl)phenoxy)phenylsulfonyl)-1-oxa-8-azaspiro[4.5]decan-3-ylamino)propoxy)-N-methylbenzenesulfonamide]",0.0506
4,"CNS(=O)(=O)c1cccc(OC[C@@H](O)CN[C@H]2COC3(CCN(S(=O)(=O)c4ccc5[nH]ncc5c4OC)CC3)C2)c1 [Compound 508, 3-((S)-2-hydroxy-3-((R)-8-(4-methoxy-1H-indazol-5-ylsulfonyl)-1-oxa-8-azaspiro[4.5]decan-3-ylamino)propoxy)-N-methylbenzenesulfonamide]",0.211
5,"CNS(=O)(=O)c1cccc(OC[C@@H](O)CNC2COC3(CCN(S(=O)(=O)c4cccc(F)c4Cl)CC3)C2)c1 (stereo partly drawn) [Compound 199, 3-((2S)-3-(8-(2-chloro-3-fluorophenylsulfonyl)-1-oxa-8-azaspiro[4.5]decan-3-ylamino)-2-hydroxypropoxy)-N-methylbenzenesulfonamide]",0.015
6,"CN(C)S(=O)(=O)c1cccc(OC[C@@H](O)CNC2COC3(CCN(S(=O)(=O)c4ccc(Cl)c5nonc45)CC3)C2)c1 (stereo partly drawn) [Compound 257, 3-((2S)-3-(8-(7-chlorobenzo[c][1,2,5]oxadiazol-4-ylsulfonyl)-1-oxa-8-azaspiro[4.5]decan-3-ylamino)-2-hydroxypropoxy)-N,N-dimethylbenzenesulfonamide]",0.037
7,"CNS(=O)(=O)c1cccc(OC[C@@H](O)CNC2COC3(CCN(S(=O)(=O)c4cc(S(=O)(=O)c5ccccc5)cs4)CC3)C2)c1 (stereo partly drawn) [Compound 190, 3-((2S)-2-hydroxy-3-(8-(4-(phenylsulfonyl)thiophen-2-ylsulfonyl)-1-oxa-8-azaspiro[4.5]decan-3-ylamino)propoxy)-N-methylbenzenesulfonamide]",0.018
8,"CNS(=O)(=O)c1cccc(OC[C@@H](O)CNC2COC3(CCN(S(=O)(=O)c4cccc(-c5ccc(CNCCF)cc5)c4)CC3)C2)c1 (stereo partly drawn) [Compound 347, 3-((2S)-3-(8-(4′-((2-fluoroethylamino)methyl)biphenyl-3-ylsulfonyl)-1-oxa-8-azaspiro[4.5]decan-3-ylamino)-2-hydroxypropoxy)-N-methylbenzenesulfonamide]",0.0335
9,"CNS(=O)(=O)c1cccc(OC[C@@H](O)CNC2COC3(CCN(S(=O)(=O)c4cc(S(C)(=O)=O)ccc4Cl)CC3)C2)c1 (stereo partly drawn) [Compound 203, 3-((2S)-3-(8-(2-chloro-5-(methylsulfonyl)phenylsulfonyl)-1-oxa-8-azaspiro[4.5]decan-3-ylamino)-2-hydroxypropoxy)-N-methylbenzenesulfonamide]",0.0149
10,"CNS(=O)(=O)c1cccc(OC[C@@H](O)CNC2COC3(CCN(S(=O)(=O)c4ccc(Br)c(Cl)c4)CC3)C2)c1 (stereo partly drawn) [Compound 155, 3-((2S)-3-(8-(4-bromo-3-chlorophenylsulfonyl)-1-oxa-8-azaspiro[4.5]decan-3-ylamino)-2-hydroxypropoxy)-N-methylbenzenesulfonamide]",0.00436
11,"CNS(=O)(=O)c1cccc(OC[C@@H](O)CNC2COC3(CCN(S(=O)(=O)c4ccc(C(C)(C)C)cc4)CC3)C2)c1 (stereo partly drawn) [Compound 36, 3-((2S)-3-(8-(4-tert-butylphenylsulfonyl)-1-oxa-8-azaspiro[4.5]decan-3-ylamino)-2-hydroxypropoxy)-N-methylbenzenesulfonamide]",0.0132
12,"CNS(=O)(=O)c1cccc(OC[C@@H](O)CNC2COC3(CCN(S(=O)(=O)c4cccc(Cl)c4Cl)CC3)C2)c1 (stereo partly drawn) [Compound 142, 3-((2S)-3-(8-(2,3-dichlorophenylsulfonyl)-1-oxa-8-azaspiro[4.5]decan-3-ylamino)-2-hydroxypropoxy)-N-methylbenzenesulfonamide]",0.0168
13,"Cc1cc(S(=O)(=O)N2CCC3(CC2)C[C@@H](NC[C@H](O)COc2cccc(S(N)(=O)=O)c2)CO3)ccc1Br [Compound 590, 3-((S)-3-((R)-8-(4-bromo-3-methylphenylsulfonyl)-1-oxa-8-azaspiro[4.5]decan-3-ylamino)-2-hydroxypropoxy)benzenesulfonamide]",0.0174
14,"CNS(=O)(=O)c1cccc(OC[C@@H](O)CNC2COC3(CCN(S(=O)(=O)c4ccc(C)cc4OC)CC3)C2)c1 (stereo partly drawn) [Compound 135, 3-((2S)-2-hydroxy-3-(8-(2-methoxy-4-methylphenylsulfonyl)-1-oxa-8-azaspiro[4.5]decan-3-ylamino)propoxy)-N-methylbenzenesulfonamide]",0.0333
15,"CN1CCOc2ncc(S(=O)(=O)N3CCC4(CC3)C[C@@H](NC[C@H](O)COc3cccc(S(=O)(=O)NCC#N)c3)CO4)cc21 [Compound 460, N-(cyanomethyl)-3-((S)-2-hydroxy-3-((R)-8-(1-methyl-2,3-dihydro-1H-pyrido[2,3-b][1,4]oxazin-7-ylsulfonyl)-1-oxa-8-azaspiro[4.5]decan-3-ylamino)propoxy)benzenesulfonamide]",3.02
16,"CNS(=O)(=O)c1cccc(OC[C@@H](O)CN[C@@H]2COC3(CCN(S(=O)(=O)c4cccc(-c5cnn(C)c5)c4)CC3)C2)c1 [Compound 216, 3-((S)-2-hydroxy-3-((S)-8-(3-(1-methyl-1H-pyrazol-4-yl)phenylsulfonyl)-1-oxa-8-azaspiro[4.5]decan-3-ylamino)propoxy)-N-methylbenzenesulfonamide]",0.0577
17,"Cc1ccc(F)c(S(=O)(=O)N2CCC3(CC2)CC(NC[C@H](O)COc2cccc(S(=O)(=O)NCCCN(C)C)c2)CO3)c1 (stereo partly drawn) [Compound 309, N-(3-(dimethylamino)propyl)-3-((2S)-3-(8-(2-fluoro-5-methylphenylsulfonyl)-1-oxa-8-azaspiro[4.5]decan-3-ylamino)-2-hydroxypropoxy)benzenesulfonamide]",3
18,"CNS(=O)(=O)c1cccc(OC[C@@H](O)CN[C@H]2COC3(CCN(S(=O)(=O)c4cnc5c(c4)N(C)C[C@H](C)O5)CC3)C2)c1 [Compound 472, 3-((S)-3-((R)-8-((S)-1,3-dimethyl-2,3-dihydro-1H-pyrido[2,3-b][1,4]oxazin-7-ylsulfonyl)-1-oxa-8-azaspiro[4.5]decan-3-ylamino)-2-hydroxypropoxy)-N-methylbenzenesulfonamide]",0.0354
19,"CNS(=O)(=O)c1cccc(OC[C@@H](O)CN[C@H]2COC3(CCN(c4ncc(C(=O)OC)cn4)CC3)C2)c1 [Compound 581, methyl 2-((R)-3-((S)-2-hydroxy-3-(3-(N-methylsulfamoyl)phenoxy)propylamino)-1-oxa-8-azaspiro[4.5]decan-8-yl)pyrimidine-5-carboxylate]",0.788
20,"COCCNS(=O)(=O)c1cccc(OC[C@@H](O)CN[C@H]2COC3(CCN(S(=O)(=O)c4cnc5c(c4)N(C)CCO5)CC3)C2)c1 [Compound 459, 3-((S)-2-hydroxy-3-((R)-8-(1-methyl-2,3-dihydro-1H-pyrido[2,3-b][1,4]oxazin-7-ylsulfonyl)-1-oxa-8-azaspiro[4.5]decan-3-ylamino)propoxy)-N-(2-methoxyethyl)benzenesulfonamide]",0.16
21,"CNS(=O)(=O)c1cccc(OC[C@@H](O)CNC2COC3(CCN(S(=O)(=O)c4cccc(Cl)c4)CC3)C2)c1 (stereo partly drawn) [Compound 15, 3-((2S)-3-(8-(3-chlorophenylsulfonyl)-1-oxa-8-azaspiro[4.5]decan-3-ylamino)-2-hydroxypropoxy)-N-methylbenzenesulfonamide]",0.0124
22,"CNS(=O)(=O)c1cccc(OC[C@@H](O)CNC2COC3(CCN(S(=O)(=O)c4ccc(C)cc4)CC3)C2)c1 (stereo partly drawn) [Compound 53, 3-((2S)-2-hydroxy-3-(8-tosyl-1-oxa-8-azaspiro[4.5]decan-3-ylamino)propoxy)-N-methylbenzenesulfonamide]",0.0218
23,"CNCc1ccc(-c2cccc(S(=O)(=O)N3CCC4(CC3)CC(NC[C@H](O)COc3cccc(S(=O)(=O)NC)c3)CO4)c2)cc1 (stereo partly drawn) [Compound 301, 3-((2S)-2-hydroxy-3-(8-(4′-((methylamino)methyl)biphenyl-3-ylsulfonyl)-1-oxa-8-azaspiro[4.5]decan-3-ylamino)propoxy)-N-methylbenzenesulfonamide]",0.0316
24,"CNS(=O)(=O)c1cccc(OC[C@@H](O)CN[C@H]2COC3(CCN(S(=O)(=O)c4cnc5ccccc5c4O)CC3)C2)c1 [Compound 541, 3-((S)-2-hydroxy-3-((R)-8-(4-hydroxyquinolin-3-ylsulfonyl)-1-oxa-8-azaspiro[4.5]decan-3-ylamino)propoxy)-N-methylbenzenesulfonamide]",0.0134
25,"CNS(=O)(=O)c1cccc(OC[C@@H](O)CNC2COC3(CCN(S(=O)(=O)c4cncc(-c5ccc(CN)nc5)c4)CC3)C2)c1 (stereo partly drawn) [Compound 388, 3-((2S)-3-(8-(6′-(aminomethyl)-3,3′-bipyridin-5-ylsulfonyl)-1-oxa-8-azaspiro[4.5]decan-3-ylamino)-2-hydroxypropoxy)-N-methylbenzenesulfonamide]",0.0794
26,"CNS(=O)(=O)c1cccc(OC[C@@H](O)CNC2COC3(CCN(S(=O)(=O)c4cncc(OC)c4)CC3)C2)c1 (stereo partly drawn) [Compound 386, 3-((2S)-2-hydroxy-3-(8-(5-methoxypyridin-3-ylsulfonyl)-1-oxa-8-azaspiro[4.5]decan-3-ylamino)propoxy)-N-methylbenzenesulfonamide]",0.0579
